Results taken from patent US20240336588A1, “COMPOSITIONS AND METHODS FOR ANTIOXIDANT AND ANTI-INFLAMMATORY THERAPEUTICS” (AVANTI BIOSCIENCES INC., priority 2021, published 2024).
Where two headings read alike, the source gives them in different places.

Key:
[1] = test system: lipopolysaccharide (LPS)-induced TNF-α model; assay: Lipopolysaccharide (LPS)-induced TNF-α model; type: in vivo, C57BL/6 mice; conditions: intranasally 3, 10, 30 mg/kg and orally 30 mg/kg, 5 days
Method: 12-week-old male C57BL/6 mice were used.
On day 5, one hour after LPS treatment, all animals were euthanized via CO2. The plasma, hippocampus and cortex were collected and immediately stored at liquid nitrogen and transferred to −80° C. Tissues were used for ELISA and Western Blot analysis to determine levels of TNF-α and pTau.

[2] = test system: 87 different targets; assay: Eurofins safetyscreen87 panel (whole panel)
[3] = molecular target: COX1 (Homo sapiens (Human), UniProt P23219); assay: Eurofins safetyscreen87 panel; type: biochemical
COX1, sequence (P23219 24-599): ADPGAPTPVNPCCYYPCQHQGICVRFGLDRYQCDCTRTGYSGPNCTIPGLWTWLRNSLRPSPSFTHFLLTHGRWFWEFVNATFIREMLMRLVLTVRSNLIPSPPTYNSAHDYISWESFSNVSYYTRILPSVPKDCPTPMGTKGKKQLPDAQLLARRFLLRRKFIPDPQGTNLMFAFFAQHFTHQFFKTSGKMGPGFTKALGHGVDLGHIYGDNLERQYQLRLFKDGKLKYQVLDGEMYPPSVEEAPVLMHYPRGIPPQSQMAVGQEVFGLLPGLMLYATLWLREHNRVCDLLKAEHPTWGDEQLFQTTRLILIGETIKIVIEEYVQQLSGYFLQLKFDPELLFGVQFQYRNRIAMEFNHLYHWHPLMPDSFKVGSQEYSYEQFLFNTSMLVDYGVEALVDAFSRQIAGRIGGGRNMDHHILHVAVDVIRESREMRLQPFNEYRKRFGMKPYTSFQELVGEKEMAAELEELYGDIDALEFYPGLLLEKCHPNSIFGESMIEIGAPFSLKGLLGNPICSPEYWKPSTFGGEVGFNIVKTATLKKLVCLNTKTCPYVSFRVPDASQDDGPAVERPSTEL

[4] = molecular target: Potassium channel hERG (Homo sapiens (Human), UniProt Q12809); assay: Eurofins safetyscreen87 panel; type: binding; conditions: c=10 μM
Potassium channel hERG, sequence (Q12809 whole entry): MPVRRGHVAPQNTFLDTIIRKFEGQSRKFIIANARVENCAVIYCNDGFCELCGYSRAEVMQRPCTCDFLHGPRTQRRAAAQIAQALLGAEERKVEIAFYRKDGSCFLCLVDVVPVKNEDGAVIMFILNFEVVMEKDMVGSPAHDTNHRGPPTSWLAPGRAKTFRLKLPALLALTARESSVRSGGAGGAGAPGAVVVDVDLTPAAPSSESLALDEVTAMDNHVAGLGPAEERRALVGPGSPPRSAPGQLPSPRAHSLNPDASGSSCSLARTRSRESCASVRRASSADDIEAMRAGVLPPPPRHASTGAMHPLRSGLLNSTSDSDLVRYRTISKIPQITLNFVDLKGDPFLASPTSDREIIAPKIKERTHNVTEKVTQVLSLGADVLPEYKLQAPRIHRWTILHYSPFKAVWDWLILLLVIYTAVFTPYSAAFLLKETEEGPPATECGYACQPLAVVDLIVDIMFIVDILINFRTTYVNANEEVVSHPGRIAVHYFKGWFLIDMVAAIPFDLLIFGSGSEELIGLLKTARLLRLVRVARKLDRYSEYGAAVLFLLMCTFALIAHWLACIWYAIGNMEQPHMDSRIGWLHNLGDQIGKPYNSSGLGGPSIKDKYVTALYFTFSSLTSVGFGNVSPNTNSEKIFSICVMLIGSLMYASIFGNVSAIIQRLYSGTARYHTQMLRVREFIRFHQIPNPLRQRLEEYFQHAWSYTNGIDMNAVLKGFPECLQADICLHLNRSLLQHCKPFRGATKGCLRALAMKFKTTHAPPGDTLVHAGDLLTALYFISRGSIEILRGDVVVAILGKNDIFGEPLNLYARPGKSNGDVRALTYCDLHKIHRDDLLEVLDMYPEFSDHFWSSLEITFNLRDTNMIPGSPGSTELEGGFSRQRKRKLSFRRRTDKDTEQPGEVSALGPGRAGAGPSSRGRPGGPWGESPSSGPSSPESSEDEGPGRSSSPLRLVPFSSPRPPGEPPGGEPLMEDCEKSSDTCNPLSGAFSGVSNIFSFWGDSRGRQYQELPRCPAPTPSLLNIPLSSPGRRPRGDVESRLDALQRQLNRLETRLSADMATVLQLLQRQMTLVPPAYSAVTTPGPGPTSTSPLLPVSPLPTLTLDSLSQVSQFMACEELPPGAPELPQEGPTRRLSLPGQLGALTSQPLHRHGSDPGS

[5] = molecular target: PDE3A (Homo sapiens (Human), UniProt Q14432); assay: Eurofins safetyscreen87 panel; type: biochemical
PDE3A, sequence (Q14432 whole entry, canonical isoform): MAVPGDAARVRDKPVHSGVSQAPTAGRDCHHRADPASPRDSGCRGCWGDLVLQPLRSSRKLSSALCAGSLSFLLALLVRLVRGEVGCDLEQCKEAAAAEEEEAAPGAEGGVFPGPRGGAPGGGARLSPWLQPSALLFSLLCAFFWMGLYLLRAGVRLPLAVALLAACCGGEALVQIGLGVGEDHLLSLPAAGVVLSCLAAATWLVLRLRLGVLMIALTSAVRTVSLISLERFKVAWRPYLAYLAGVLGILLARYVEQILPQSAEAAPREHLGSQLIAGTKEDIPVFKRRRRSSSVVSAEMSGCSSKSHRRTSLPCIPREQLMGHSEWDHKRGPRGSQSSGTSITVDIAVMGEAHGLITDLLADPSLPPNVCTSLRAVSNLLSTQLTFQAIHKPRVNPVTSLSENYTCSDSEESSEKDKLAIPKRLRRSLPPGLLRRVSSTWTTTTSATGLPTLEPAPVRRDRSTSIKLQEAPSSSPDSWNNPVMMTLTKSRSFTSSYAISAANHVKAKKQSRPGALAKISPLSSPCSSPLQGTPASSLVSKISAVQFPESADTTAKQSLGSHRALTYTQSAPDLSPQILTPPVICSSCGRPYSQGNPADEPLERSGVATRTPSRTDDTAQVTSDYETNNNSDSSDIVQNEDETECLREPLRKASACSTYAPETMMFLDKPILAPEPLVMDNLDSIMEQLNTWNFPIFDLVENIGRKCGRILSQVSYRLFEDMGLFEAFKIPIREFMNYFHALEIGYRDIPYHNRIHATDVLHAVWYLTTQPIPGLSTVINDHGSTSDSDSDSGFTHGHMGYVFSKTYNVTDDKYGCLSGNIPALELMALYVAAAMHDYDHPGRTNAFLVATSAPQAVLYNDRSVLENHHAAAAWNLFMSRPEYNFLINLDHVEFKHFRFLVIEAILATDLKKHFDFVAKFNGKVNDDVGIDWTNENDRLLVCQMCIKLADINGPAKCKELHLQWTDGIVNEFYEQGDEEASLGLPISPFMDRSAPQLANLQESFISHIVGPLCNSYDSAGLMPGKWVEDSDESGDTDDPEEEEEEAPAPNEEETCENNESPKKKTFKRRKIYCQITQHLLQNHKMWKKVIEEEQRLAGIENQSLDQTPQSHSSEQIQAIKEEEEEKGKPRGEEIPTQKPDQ

[6] = molecular target: DYRK1B (GST tagged full length human DYRK1B isoform p65) (Homo sapiens (Human), UniProt Q9Y463); assay: DYRK1B ELISA assay; type: biochemical; conditions: 70 ng GST-DYRK1B, kinase reaction time 60 min
DYRK1B (GST tagged full length human DYRK1B isoform p65), sequence (Q9Y463 other isoform, or with tags, fused parts or gaps): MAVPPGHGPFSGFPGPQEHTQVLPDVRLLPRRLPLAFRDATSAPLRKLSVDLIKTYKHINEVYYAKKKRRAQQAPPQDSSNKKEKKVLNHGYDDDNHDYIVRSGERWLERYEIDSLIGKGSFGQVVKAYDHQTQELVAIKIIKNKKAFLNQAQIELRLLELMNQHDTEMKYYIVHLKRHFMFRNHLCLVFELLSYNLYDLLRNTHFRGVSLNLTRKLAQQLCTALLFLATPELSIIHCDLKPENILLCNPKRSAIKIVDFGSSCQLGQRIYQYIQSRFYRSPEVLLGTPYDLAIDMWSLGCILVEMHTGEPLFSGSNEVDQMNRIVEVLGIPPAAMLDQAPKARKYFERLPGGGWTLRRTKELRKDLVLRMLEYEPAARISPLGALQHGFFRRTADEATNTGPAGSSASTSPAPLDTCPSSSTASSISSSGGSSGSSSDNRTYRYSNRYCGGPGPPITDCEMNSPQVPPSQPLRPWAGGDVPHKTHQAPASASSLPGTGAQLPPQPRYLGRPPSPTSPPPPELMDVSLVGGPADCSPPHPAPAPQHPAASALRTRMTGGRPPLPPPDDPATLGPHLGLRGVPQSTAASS
Method: DYRK1A assay. […] After blocking, wells were washed extensively with dilution buffer before subjecting to phosphorylation. […] At the end point, wells were washed with ˜350 μl dilution buffer three times to terminate the reaction. […] Each point was run in quadruplicate with DMSO present in all assays at 0.2% final concentration. […] HT-PRD phosphorylation was subsequently determined by the sandwich antibody staining protocol, first with 100 μl mouse mAb 3D3 specific for detecting DYRK1A-phosphorylated PRD (60 min at room temperature) then with 100 μl alkaline phosphatase (AP)-linked anti-mouse secondary antibody (60 min at room temperature), followed by colorimetric reaction with 100 μl PNPP solution (PNPP substrate tablet, Thermo Fisher). […] The readings were then recorded for subsequent IC50 calculation. The DYRK1A assay protocol can also support DYRK1B and DYRK2 phosphorylation reactions in the enzyme concentration-dependent manner; therefore, the method was adapted for measuring the activity of candidate compounds against DYRK1B and DYRK2. For DYRK2, the reactions were performed as described above with 6 ng HT-DYRK2 (6×His tagged full-length human DYRK2 isoform 1). For DYRK1B, the assays were also similarly conducted but with 70 ng GST-DYRK1B (glutathione S-transferase tagged full length human DYRK1B isoform p65) and an extended kinase reaction time of 60 min.
Data transformation, calculation, plotting, curve fitting, and IC 50 calculation were performed in KaleidaGraph (http://www.synergy.com/wordpress_650164087; Mac version 4.1). Data was corrected for background (readings from wells with only PNPP) before subsequent manipulations. […] The resulting residual activity was then plotted against its corresponding inhibitor concentrations in semi-log graph and the plot was fit to the sigmoidal equation, y=a+(b−a)/(1+(x/c)^d), for IC50 calculation.
Compounds of Table 1, above, were examined in vitro for activity against DYRK1B, via an ELISA assay.

[7] = test system: 12 transporter proteins including BCRP and PgP; assay: Transporter substrate test (Eurofins panels); type: in vitro ADME
[8] = male, C57BL/6, mouse, in vivo
[9] = test system: 8 major CYP enzymes; assay: CYP inhibition in human liver microsomes; type: in vitro ADME; conditions: c=10 μM
Method: Compound 68 was also tested for its inhibitor activity against the 8 major CYP enzymes in human liver microsomes.

[10] = in vivo; conditions: male, C57BL/6, mouse
[11] = test system: Salmonella typhimurium (TA98, TA100, TA97a, and TA1535); assay: mini-Ames assay; conditions: 5 concentrations up to 100 μM, absence or presence of rat liver S9
Method: The compound dissolved in DMSO was evaluated at 5 concentrations up to […] in the absence or presence of metabolic activation (rat liver S9).

[12] = molecular target: DYRK1A (HT-497, 6×His tagged rat truncated DYRK1A isoform X1 residues 1-497) (Rattus norvegicus (Rat), UniProt Q63470); assay: DYRK1A ELISA assay (HT-PRD phosphorylation); type: biochemical; conditions: 100 µM ATP, 5 ng HT-497, 30 min at 30° C.
[13] = in vivo; conditions: male, C57BL/6, mouse; remark: listed apart in the source
[14] = mouse, in vivo
[15] = molecular target: COX2 (Homo sapiens (Human), UniProt P35354); assay: Eurofins safetyscreen87 panel; type: biochemical
COX2, sequence (P35354 18-604): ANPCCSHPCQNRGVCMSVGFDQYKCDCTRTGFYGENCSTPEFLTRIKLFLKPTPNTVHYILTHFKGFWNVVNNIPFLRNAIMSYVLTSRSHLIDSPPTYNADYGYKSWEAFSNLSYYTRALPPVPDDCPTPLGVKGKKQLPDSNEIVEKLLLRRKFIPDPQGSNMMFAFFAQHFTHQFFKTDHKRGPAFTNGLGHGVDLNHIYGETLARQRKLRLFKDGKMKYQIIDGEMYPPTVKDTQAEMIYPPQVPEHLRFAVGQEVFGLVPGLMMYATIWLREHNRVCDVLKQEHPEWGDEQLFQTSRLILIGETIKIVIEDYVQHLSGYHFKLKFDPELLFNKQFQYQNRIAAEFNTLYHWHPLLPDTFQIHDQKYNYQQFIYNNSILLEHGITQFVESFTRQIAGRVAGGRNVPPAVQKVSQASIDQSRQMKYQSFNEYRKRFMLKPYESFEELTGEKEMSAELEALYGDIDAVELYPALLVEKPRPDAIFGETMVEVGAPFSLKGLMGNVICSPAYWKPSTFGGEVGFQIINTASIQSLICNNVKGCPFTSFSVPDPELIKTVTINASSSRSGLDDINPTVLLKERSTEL

[16] = inhaled or intranasal, 10 mg/kg
[17] = inhaled or intranasal, 30 mg/kg

COc1cc(C(=O)O[C@@H]2Cc3c(O)cc(O)cc3O[C@H]2c2cc(O)c(O)c(O)c2)c(F)c(O)c1O [Compound 68, (2S,3R)-5,7-dihydroxy-2-(3,4,5-trihydroxyphenyl)chroman-3-yl 2-fluoro-3,4-dihydroxy-5-methoxybenzoate]
lipopolysaccharide-induced expression of TNF-alpha ([1]; hippocampus and plasma, ELISA, FIGS. 3-4): inhibit | lipopolysaccharide-induced pTau ([1]; hippocampus, Western Blot (AT8 antibody), FIG. 5): inhibit | activity against other ion channels ([2]; c=10 μM): No activity | profile over 87 different targets ([2]; screened at c=10 µM, significant activity only against COX1, COX2, PDE3A): very clean profile | IC50 [3]: 1200 nM | activity against the Potassium channel hERG [4]: No activity | IC50 [5]: 380 nM | IC50 [6]: < 100 nM | substrate of transporter proteins [7]: not a substrate of any of them | time measurable in whole-brain homogenate after dosing [8]: 4 h | inhibition of the CYP enzymes [9]: no inhibition | CL/F ([10]; 30 mg/kg): 842 mL/min/kg | Vd/F ([10]; 30 mg/kg): 17.1 L/kg | AUC(0-inf) [10, 16]: 716 ng·h/mL | AUC(0-t) [10, 16]: 702 ng·h/mL | CL/F [10, 16]: 240 mL/min/kg | Cmax [10, 16]: 489 ng/mL | Vd/F [10, 16]: 41.7 L/kg | bioavailability [10, 16]: > 100% | AUC(0-inf) [10, 17]: 4990 ng·h/mL | AUC(0-t) [10, 17]: 4950 ng·h/mL | Cmax [10, 17]: 3140 ng/mL | bioavailability [10, 17]: > 100% | AUC(0-inf) ([10]; iv, 5 mg/kg): 348 ng·h/mL | AUC(0-t) ([10]; iv, 5 mg/kg): 334 ng·h/mL | Cmax ([10]; iv, 5 mg/kg): 257 ng/mL | Vd ([10]; iv, 5 mg/kg): 22 L/kg | clearance ([10]; iv, 5 mg/kg): 240 mL/min/kg | AUC(0-inf) ([10]; po, 30 mg/kg): 92 ng·h/mL | AUC(0-t) ([10]; po, 30 mg/kg): 78 ng·h/mL | CL/F ([10]; po, 30 mg/kg): 100 mL/min/kg | Cmax ([10]; po, 30 mg/kg): 41 ng/mL | Vd/F ([10]; po, 30 mg/kg): 602 L/kg | bioavailability ([10]; po, 30 mg/kg): 4% | cytotoxicity in bacteria [11]: No evidence of cytotoxicity | mutagenicity [11]: not mutagenic | IC50 [12]: < 100 nM | concentration at 1 h [13]: 120 ng/g | T1/2 ([14]; inhaled or intranasal): 1.06 H | T1/2 [14, 17]: 1.97 H | T1/2 ([14]; iv, 5 mg/kg): 1.04 H | T1/2 ([14]; po, 30 mg/kg): 1.27 H | IC50 [15]: 182 nM
